≈ marks a conversion by molar mass, not a printed value.
Assays:
Assay in all cases: In vitro antibacterial evaluation: minimum inhibitory concentration (MIC), broth dilution method
Type in all cases: cell-based
Settings in all cases: broth dilution, 18 hours at 35° C.
Streptococcus sp. = test system: Streptococcus sp.
In short: (§1)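 Inoculum: 5×10^5 CFU/mL. Range: 64-0.06 μg/mL. Medium: Muller-Hinton II […]; NCCLS M7-A2 broth dilution. Endpoint: lowest concentration inhibiting growth. Strains include methicillin-, penicillin- and/or vancomycin-resistant clinical isolates.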

Staphylococcus sp. = test system: Staphylococcus sp.
In short: as §1

Enterococcus sp. = test system: Enterococcus sp.
In short: as §1

Escherichia coli = test system: Escherichia coli

CC(c1ccccc1)C1NC(=O)CNC(=O)C(CO)NC(=O)C(C(O)C2CNC(=N)N2C2OC(CO)C(O)C(O)C2O)NC(=O)C(C(O)C2CNC(=N)N2)NC(=O)C(Cc2ccc3oc(-c4cccc(F)c4)nc3c2)NC1=O (stereo not drawn) [Example 30, Cyclo[3-[2-(3-fluorophenyl)-1,3-benzoxazol-5-yl]alanyl-3-(2-iminoimidazolidin-4-yl)seryl-3-(3-hexopyranosyl-2-iminoimidazolidin-4-yl)serylserylglycyl-β-methylphenylalanyl]]
MIC Streptococcus agalactiae (GC 4564) (Streptococcus sp.; Streptococcus agalactiae (GC 4564)): 8 µg/mL (≈ 7.34 µM) | MIC Streptococcus pneumoniae (ATCC 6301) (Streptococcus sp.; Streptococcus pneumoniae (ATCC 6301)): 8 µg/mL (≈ 7.34 µM) | MIC Streptococcus pneumoniae (GC 1894) (Streptococcus sp.; Streptococcus pneumoniae (GC 1894)): 16 µg/mL (≈ 14.7 µM) | MIC Streptococcus pneumoniae (GC 4565) (Streptococcus sp.; Streptococcus pneumoniae (GC 4565)): 16 µg/mL (≈ 14.7 µM) | MIC Streptococcus pyogenes (GC 4563) (Streptococcus sp.; Streptococcus pyogenes (GC 4563)): 4 µg/mL (≈ 3.67 µM) | MIC Streptococcus agalactiae (GC 4564) (Streptococcus sp.): 8 µg/mL (≈ 7.34 µM) | MIC Streptococcus pneumoniae (ATCC 6301) (Streptococcus sp.): 8 µg/mL (≈ 7.34 µM) | MIC Streptococcus pneumoniae (GC 1894) (Streptococcus sp.): 16 µg/mL (≈ 14.7 µM) | MIC Streptococcus pneumoniae (GC 4565) (Streptococcus sp.): 16 µg/mL (≈ 14.7 µM) | MIC Streptococcus pyogenes (GC 4563) (Streptococcus sp.): 4 µg/mL (≈ 3.67 µM) | MIC Staphylococcus aureus-SMITH (GC 4543) (Staphylococcus sp.; strain GC 4543): 8 µg/mL (≈ 7.34 µM) | MIC Staphylococcus haemolyticus (GC 4546) (Staphylococcus sp.; strain GC 4546): 4 µg/mL (≈ 3.67 µM) | MIC Coagulase Negative Staphylococcus (GC 4547) (Staphylococcus sp.; strain GC 4547): 8 µg/mL (≈ 7.34 µM) | MIC Coagulase Negative Staphylococcus (GC 4548) (Staphylococcus sp.; strain GC 4548): 4 µg/mL (≈ 3.67 µM) | MIC Coagulase Negative Staphylococcus (GC 4549) (Staphylococcus sp.; strain GC 4549): 16 µg/mL (≈ 14.7 µM) | MIC Coagulase Negative Staphylococcus (GC 4551) (Staphylococcus sp.; strain GC 4551): 8 µg/mL (≈ 7.34 µM) | MIC Coagulase Negative Staphylococcus (GC 6257) (Staphylococcus sp.; strain GC 6257): 4 µg/mL (≈ 3.67 µM) | MIC Staphylococcus aureus-SMITH (GC 4543) (Staphylococcus sp.; strain SMITH GC 4543): 8 µg/mL (≈ 7.34 µM) | MIC Enterococcus avium (GC 4558) (Enterococcus sp.; Enterococcus avium (GC 4558)): 16 µg/mL (≈ 14.7 µM) | MIC Enterococcus faecalis (ATCC 29212) (Enterococcus sp.; Enterococcus faecalis (ATCC 29212)): 64 µg/mL (≈ 58.7 µM) | MIC Enterococcus faecalis (GC 2242) (Enterococcus sp.; Enterococcus faecalis (GC 2242)): 32 µg/mL (≈ 29.4 µM) | MIC Enterococcus faecalis (GC 2691) (Enterococcus sp.; Enterococcus faecalis (GC 2691)): 32 µg/mL (≈ 29.4 µM) | MIC Enterococcus faecalis (GC 3059) (Enterococcus sp.; Enterococcus faecalis (GC 3059)): 64 µg/mL (≈ 58.7 µM) | MIC Enterococcus faecalis (GC 4552) (Enterococcus sp.; Enterococcus faecalis (GC 4552)): 64 µg/mL (≈ 58.7 µM) | MIC Enterococcus faecalis (GC 4553) (Enterococcus sp.; Enterococcus faecalis (GC 4553)): 16 µg/mL (≈ 14.7 µM) | MIC Enterococcus faecalis (GC 4554) (Enterococcus sp.; Enterococcus faecalis (GC 4554)): 64 µg/mL (≈ 58.7 µM) | MIC Enterococcus faecalis (GC 6189) (Enterococcus sp.; Enterococcus faecalis (GC 6189)): 32 µg/mL (≈ 29.4 µM) | MIC Enterococcus faecium (GC 2243) (Enterococcus sp.; Enterococcus faecium (GC 2243)): 32 µg/mL (≈ 29.4 µM) | MIC Enterococcus faecium (GC 4556) (Enterococcus sp.; Enterococcus faecium (GC 4556)): 64 µg/mL (≈ 58.7 µM) | MIC Enterococcus faecium (GC 4557) (Enterococcus sp.; Enterococcus faecium (GC 4557)): 8 µg/mL (≈ 7.34 µM) | MIC Enterococcus avium (GC 4558) (Enterococcus sp.): 16 µg/mL (≈ 14.7 µM) | MIC Enterococcus faecalis (ATCC 29212) (Enterococcus sp.): 64 µg/mL (≈ 58.7 µM) | MIC Enterococcus faecalis (GC 2242) (Enterococcus sp.): 32 µg/mL (≈ 29.4 µM) | MIC Enterococcus faecalis (GC 2691) (Enterococcus sp.): 32 µg/mL (≈ 29.4 µM) | MIC Enterococcus faecalis (GC 3059) (Enterococcus sp.): 64 µg/mL (≈ 58.7 µM) | MIC Enterococcus faecalis (GC 4552) (Enterococcus sp.): 64 µg/mL (≈ 58.7 µM) | MIC Enterococcus faecalis (GC 4553) (Enterococcus sp.): 16 µg/mL (≈ 14.7 µM) | MIC Enterococcus faecalis (GC 4554) (Enterococcus sp.): 64 µg/mL (≈ 58.7 µM) | MIC Enterococcus faecalis (GC 6189) (Enterococcus sp.): 32 µg/mL (≈ 29.4 µM) | MIC Enterococcus faecium (GC 2243) (Enterococcus sp.): 32 µg/mL (≈ 29.4 µM) | MIC Enterococcus faecium (GC 4556) (Enterococcus sp.): 64 µg/mL (≈ 58.7 µM) | MIC Enterococcus faecium (GC 4557) (Enterococcus sp.): 8 µg/mL (≈ 7.34 µM) | MIC Escherichia coli (ATCC 25922) (Escherichia coli): 32 µg/mL (≈ 29.4 µM) | MIC Escherichia coli (GC 4559) (Escherichia coli): 32 µg/mL (≈ 29.4 µM) | MIC Escherichia coli (GC 4560) (Escherichia coli): 8 µg/mL (≈ 7.34 µM)

Source: patent US8247211B2, “Glycopeptide antibiotics” (American Cyanamid Company, priority 2001, dated 2012)
